Reference: patent publication US20260146039A1, “NEUR[…] THE TREATMENT OF PAIN, ITCH AND NERVE INJURY” (Cacti, Inc., priority 2023, published 2026)

Key:
[1] = test system: cultured dorsal root ganglion (DRG) neurons; test: Calcium flux in cultured DRG neurons (Fura-2AM calcium imaging); format: cell-based, mice
Procedure: Methods: Assessment of Compound 1 Induced Calcium Flux in Cultured DRG Neurons To evaluate the effect of Compound 1 and Compound 2 on calcium flux in cultured dorsal root ganglion (DRG) neurons isolated from 8-week-old male mice, the following protocols were performed:
• 8-week-old C57BL6 male mice • Fura-2AM (calcium indicator dye) • Compound 1 (at concentrations of 1 μM and 10 μM) • Compound 2 (at concentrations of 1 μM and 10 μM) • ATP (P2X3R agonist, 10 μM) • Capsaicin (TRPV1 ligand, 10 μM) • KCl (50 mM) • Calcium imaging setup (calcium microscope)
• Euthanize 8-week-old male mice according to ethical guidelines. • Harvest the dorsal root ganglia (DRG) from the mice.
• Culture the DRG neurons in appropriate growth media for 24 hours. 3. […]
• Measure and record the average calcium flux (A). • Determine the percentage of responding neurons, identifying responding neurons as those with an f340/f380 fluorescence ratio >10% (B).
Eight-week-old C57BL6 male mice were euthanized, DRG harvested, and neurons cultured for 24 hours. The neurons were then loaded with Fura-2AM, a calcium-responsive dye, and single-neuron calcium flux was recorded by calcium microscopy. […] Average calcium flux (FIG. 1A) and the percentage (FIG. 1B) of responding neurons (identified as f340/f380>10% fluorescence) are shown. […]

C57BL6 mice = test: CFA inflammatory pain model, Blackbox behavioral analysis of hind paw usage; format: in vivo; conditions: for reversal of CFA-induced mechanical hypersensitivity: beginning at 24 hours after intraplantar administration
Excerpt: To evaluate the effect of different treatments on voluntary pain-related behaviors in mice, we used the Blackbox behavioral analysis system, as previously described (Zhang, et al., PAIN, 2022 Dec. 1; 163 (12): 2326-2336, incorporated herein by reference in its entirety).
• Male and female C57BL6 mice (n=5 per group) • Complete Freund's Adjuvant (CFA, Sigma) • Saline • PBS • DMSO • Compound 1 • Compound 2 • Syringes (for injections) • Hargreaves apparatus (for thermal pain testing) • Blackbox behavioral analysis setup
• Divide mice into groups (n=10 per group). • Inject 20 μL of CFA or saline into the right hind paw of each mouse.
• 24 hours after CFA injection, randomly assign mice to the following groups: • Control Group: PBS+PBS • CFA+PBS Group • CFA+DMSO Group • CFA+Compound 1 Group • CFA+Compound 2 Group
• Inject the designated treatment (PBS (20 μL), DMSO (20 μL), Compound 1 (1 μM in 20 μL PBS), or Compound 2 (1 μM in 20 μL DMSO)) into the plantar right paw of each mouse according to their assigned group.
• Perform Blackbox behavioral analysis and Hargreaves test at the following time points after drug injection: 1 hour, 3 hours, 6 hours, and 24 hours.
• Blackbox Behavioral Analysis: • Place each mouse in the Blackbox apparatus for 10 minutes. • Record and analyze behaviors indicative of pain or discomfort (e.g., grooming, paw licking, flinching).
• Record the data for each mouse at each time point. • Compare the results across different groups to assess the effects of the treatments on pain response.
This protocol outlines the steps to assess the impact of different treatments on pain response in mice using Blackbox behavioral analysis. Mice are injected with CFA or saline, followed by treatment with Compound 1 or Compound 2, and negative controls using vehicle (PBS or DMSO) alone.
• 1. Control Group: PBS+PBS • 2. CFA+PBS Group • 3. CFA+DMSO Group • 4. CFA+Compound 1 Group • 5. CFA+Compound 2 Group
• 1 hour after drug injection • 3 hours after drug injection • 6 hours after drug injection • 24 hours after drug injection Precise timing and consistent handling throughout the experiment were utilized to maintain the validity of the results.
Effect of Compound 1. Eight-week-old male and female mice (n=5 mice/group) were injected with CFA (20 μL; intradermal) or saline (20 μL) into the right hind paw. Left (contralateral) hindpaw luminance (FIG. 3A) and ratio of time (FIG. 3B), as well as right hindpaw luminance (FIG. 4A) and ratio of time (FIG. 4B), were assessed as surrogates for mechanical pain hypersensitivity at 1-, 3-, 6-, and 24-hours post-treatment.
Data were analyzed using a two-way ANOVA to assess the effects of CFA injection and subsequent treatments on hindpaw usage and thermal pain hypersensitivity. Post-hoc comparisons were performed using Dunnett's test to identify significant differences between treatment groups.
Effect of Compound 2. Eight-week-old male and female mice (n=5 mice/group) were injected with CFA (20 μL; intradermal) or saline (20 μL) into the right hind paw. Left (contralateral) hind paw luminance (FIG. 5A) and ratio of time (FIG. 5B), as well as right hindpaw luminance (FIG. 6A) and ratio of time (FIG. 6B), were assessed as a readout of mechanical pain hypersensitivity at 1-, 3-, 6-, and 24-hours post-treatment.
Data were analyzed using a two-way ANOVA to assess the effects of CFA injection and subsequent treatments on hindpaw usage (mechanical hypersensitivity). Post-hoc comparisons were performed using Dunnett's test to identify significant differences between treatment groups.

[2] = Compound 1, 1 μM in 20 μL PBS, plantar right paw, 24 hours after CFA, 1, 3, 6, 24 hours post-treatment

Row | SMILES | calcium flux / activation of DRG neurons (interpretation) [1] | CFA-induced durable reduction of right paw usage (C57BL6 mice; [2]) | left (contralateral) paw usage after CFA in the right paw, compared to control mice (C57BL6 mice; [2]) | reversal of CFA-induced mechanical hypersensitivity (C57BL6 mice) | left (contralateral) paw usage after CFA in the right paw, compared to control mice (C57BL6 mice; Compound 2, 1 μM in 20 μL DMSO, plantar right paw, 24 hours after CFA, 1, 3, 6, 24 hours post-treatment) | CFA-induced durable reduction of right (injured) paw usage (C57BL6 mice; Compound 2, 1 μM in 20 μL DMSO, plantar right paw, effect beginning 24 hours after compound administration)
1 | CCN(CC)C(=O)[C@@H]1C=C2c3cccc4[nH]cc(c34)C[C@H]2[N+](C)(CC)C1 (stereo partly drawn) [Compound 1, (6aR,9R)-9-(diethylcarbamoyl)-7-ethyl-7-methyl-4,6,6a,7,8,9-hexahydroindolo[4,3-fg]quinolin-7-ium Iodide] | produced calcium flux | partly reduced | did not change | partial reversal | – | –
2 | CCCCCC[N+]1(C)C[C@H](C(=O)N(CC)CC)C=C2c3cccc4[nH]cc(c34)C[C@H]21 (stereo partly drawn) [Compound 2, (6aR,9R)-9-(diethylcarbamoyl)-7-hexyl-7-methyl-4,6,6a, 7,8,9-hexahydroindolo[4,3-fg]quinolin-7-ium Iodide] | did not produce calcium flux | – | – | partial reversal | did not change | partly reduced
